Data as given in paper PMC12207590, “Substrate Specificity of the Organic Cation Transporters MATE1 and MATE2K and Functional Overlap with OCT1 and OCT2” (Journal of Medicinal Chemistry, 2025).
Read-outs that look alike come from different tables or passages of the source.

Key:
MATE1 = target: T1, MATE1 (Homo sapiens, UniProt Q96FL8); assay: Uptake ratio in MATE1-overexpressing HEK293 cells vs empty vector (2.5 μM, 1 min, HPLC-MS/MS); type: cell-based
T1 sequence (Q96FL8 1-570): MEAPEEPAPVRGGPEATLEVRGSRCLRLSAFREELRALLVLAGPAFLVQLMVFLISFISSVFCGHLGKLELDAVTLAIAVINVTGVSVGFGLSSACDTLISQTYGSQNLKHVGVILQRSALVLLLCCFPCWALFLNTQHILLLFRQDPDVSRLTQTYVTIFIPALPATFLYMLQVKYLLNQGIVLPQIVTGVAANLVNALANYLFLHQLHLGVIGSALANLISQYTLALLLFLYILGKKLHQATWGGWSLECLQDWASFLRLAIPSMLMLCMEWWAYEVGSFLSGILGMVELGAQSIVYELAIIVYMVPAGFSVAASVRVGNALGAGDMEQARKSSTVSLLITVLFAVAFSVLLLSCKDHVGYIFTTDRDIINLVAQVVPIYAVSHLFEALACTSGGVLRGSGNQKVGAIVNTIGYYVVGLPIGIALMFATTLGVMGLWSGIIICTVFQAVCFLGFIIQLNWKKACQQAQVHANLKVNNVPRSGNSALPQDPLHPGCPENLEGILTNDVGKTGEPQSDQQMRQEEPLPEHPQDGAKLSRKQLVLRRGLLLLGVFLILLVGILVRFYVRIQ

MATE2K = MATE2K (Homo sapiens, UniProt Q86VL8); assay: Uptake ratio in MATE2K-overexpressing HEK293 cells vs empty vector (2.5 μM, 1 min, HPLC-MS/MS); type: cell-based
Sequence of MATE2K (Q86VL8 1-566 isoform Q86VL8-3): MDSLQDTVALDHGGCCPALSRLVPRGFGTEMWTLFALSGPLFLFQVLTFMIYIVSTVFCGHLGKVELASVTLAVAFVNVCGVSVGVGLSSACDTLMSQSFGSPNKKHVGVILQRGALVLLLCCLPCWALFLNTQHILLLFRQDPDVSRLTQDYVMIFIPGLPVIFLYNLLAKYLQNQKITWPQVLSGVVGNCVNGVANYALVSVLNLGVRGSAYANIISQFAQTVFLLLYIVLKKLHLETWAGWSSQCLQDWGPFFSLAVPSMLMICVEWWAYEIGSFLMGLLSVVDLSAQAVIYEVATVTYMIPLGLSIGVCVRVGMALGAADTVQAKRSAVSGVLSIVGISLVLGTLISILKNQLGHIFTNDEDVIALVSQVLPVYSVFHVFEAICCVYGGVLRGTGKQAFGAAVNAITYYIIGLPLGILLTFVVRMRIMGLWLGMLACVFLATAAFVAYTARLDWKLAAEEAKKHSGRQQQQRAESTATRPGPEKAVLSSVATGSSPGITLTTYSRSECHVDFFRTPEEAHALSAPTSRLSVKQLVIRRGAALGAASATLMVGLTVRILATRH

hCMEC [1] = assay: TS DPH hCMEC (Table S2); type: cell-based, human; design: scale not given here
hCMEC [2] = assay: TS MDAI hCMEC (Table S2); type: cell-based, human; design: scale not given here
[3] = fold uptake over empty vector, 2.5 μM, 1 min
[4] = uptake ratio MATE1-overexpressing vs empty-vector HEK293 cells, 2.5 μM, 1 min, mean
[5] = uptake ratio MATE2K-overexpressing vs empty-vector HEK293 cells, 2.5 μM, 1 min, mean

Compound	MATE1 ratio (MATE1; [3])	MATE2K ratio (MATE2K; [3])	TS DPH hCMEC (hCMEC [1]; Table S2)	TS MDAI hCMEC (hCMEC [2]; Table S2)	other results
COc1cccc2c1C(=O)c1c(O)c3c(c(O)c1C2=O)C[C@@](O)(C(C)=O)C[C@@H]3O[C@H]1C[C@H](N)[C@H](O)[C@H](C)O1 [Daunorubicin]	–	–	–	–	MATE1 ratio (MATE1): 1.21; MATE2K ratio (MATE2K): 1.01; TS DPH hCMEC (hCMEC [1]): 0.86; TS MDAI hCMEC (hCMEC [2]): 1.29
CN(C)CC(c1ccc(O)cc1)C1(O)CCCCC1 (stereo not drawn) [Desvenlafaxine]	1.12	1.09	0.49	0.61	–
CN(C)CCC=C1c2ccccc2COc2ccccc21 [Doxepin]	1.34	1.32	0.13	0.10	–
CN1CCC[C@@H]1Cc1c[nH]c2ccc(CCS(=O)(=O)c3ccccc3)cc12 [Eletriptan]	1.41	1.22	0.21	0.46	–
CC[C@@H](CO)NCCN[C@@H](CC)CO [Ethambutol]	14.14	2.78	0.98	0.95	MATE1 ratio in this study (MATE1; Table S1, 2.5 μM, 1 min): 14.14; MATE1 ratio (MATE1; fold uptake over empty vector, 2.5 μM, 1 min, listed as ethambutol): 14; MATE2K ratio in this study (MATE2K; Table S1, 2.5 μM, 1 min): 2.78
CC(Cc1ccc(O)cc1)NCC(O)c1cc(O)cc(O)c1 (stereo not drawn) [Fenoterol]	–	–	–	–	MATE1 ratio (MATE1): 14.98; MATE1 ratio in this study (MATE1): 14.98; MATE2K ratio (MATE2K): 5.46; MATE2K ratio in this study (MATE2K): 5.46; TS DPH hCMEC (hCMEC [1]): 1.47; TS MDAI hCMEC (hCMEC [2]): 1.16
CC(C)C(=O)Oc1ccc(CO)cc1[C@H](CCN(C(C)C)C(C)C)c1ccccc1 [Fesoterodine]	1.09	1.02	0.40	0.41	–
COc1ccc2c3c1O[C@H]1C[C@@H](O)C=C[C@@]31CCN(C)C2 [Galantamine]	–	–	0.80	–	MATE1 ratio (MATE1): 1.18; MATE2K ratio (MATE2K): 1.23; TS MDAI hCMEC (hCMEC [2]): 0.98
CN1C2CCCC1CC(NC(=O)c1nn(C)c3ccccc13)C2 (stereo not drawn) [Granisetron]	1.22	1.25	0.43	0.28	–
CC[C@@H](C(N)=O)N1CCCC1=O [Levetiracetam]	1.19	1.28	1.17	1.19	–
COc1ccc2c(c1)N(C[C@H](C)CN(C)C)c1ccccc1S2 [Levomepromazine]	1.21	1.19	0.31	0.33	–
Cc1cccc(C(C)c2cnc[nH]2)c1C (stereo not drawn) [Medetomidine]	1.11	1.21	0.79	0.96	–
CC12CC3CC(C)(C1)CC(N)(C3)C2 [Memantine]	1.03	1.18	0.24	0.14	MATE1 ratio in this study (MATE1; Table S1, 2.5 μM, 1 min): 1.03; MATE2K ratio in this study (MATE2K; Table S1, 2.5 μM, 1 min): 1.18
CCC1(c2cccc(O)c2)CCCCN(C)C1 (stereo not drawn) [Meptazinol]	–	–	–	–	MATE1 ratio (MATE1): 1.21; MATE2K ratio (MATE2K): 1.57; TS DPH hCMEC (hCMEC [1]): 0.40; TS MDAI hCMEC (hCMEC [2]): 0.41
C[C@@H](O)[C@H]1C(=O)N2C(C(=O)O)=C(S[C@@H]3CN[C@H](C(=O)N(C)C)C3)[C@H](C)[C@H]12 [Meropenem]	1.32	1.33	1.20	1.00	–
Nc1nc(CC(=O)Nc2ccc(CCNC[C@H](O)c3ccccc3)cc2)cs1 [Mirabegron]	8.19	4.76	0.90	0.75	–

Compound	MATE1 ratio (MATE1; [3])	MATE2K ratio (MATE2K; [3])	TS DPH hCMEC (hCMEC [1]; Table S2)	TS MDAI hCMEC (hCMEC [2]; Table S2)	other results
CNCC1CCCCC1(O)c1cccc(OC)c1 (stereo not drawn) [N-Desmethyltramadol]	–	–	–	–	MATE1 ratio (MATE1): 1.12; MATE2K ratio (MATE2K): 1.19; TS DPH hCMEC (hCMEC [1]): 0.37; TS MDAI hCMEC (hCMEC [2]): 0.64
C=CCN1CC[C@]23c4c5ccc(O)c4O[C@H]2C(=O)CC[C@@]3(O)[C@H]1C5 [Naloxone]	1.36	1.29	0.78	0.44	–
COCCOC(=O)C1=C(C)NC(C)=C(C(=O)OC(C)C)C1c1cccc([N+](=O)[O-])c1 (stereo not drawn) [Nimodipine]	1.33	1.20	1.28	1.25	–
CCOC(=O)[C@]1(c2ccccc2)CCC=C[C@H]1NC [Nortilidine]	–	–	–	–	MATE1 ratio (MATE1): 1.19; MATE2K ratio (MATE2K): 1.42; TS DPH hCMEC (hCMEC [1]): 0.53; TS MDAI hCMEC (hCMEC [2]): 0.52
Cc1nccn1CC1CCc2c(c3ccccc3n2C)C1=O (stereo not drawn) [Ondansetron]	1.19	1.24	0.22	0.22	–
Cn1c(=O)[nH]c2ncn(C)c2c1=O [Paraxanthine]	1.00	0.90	1.13	0.93	–
Fc1ccc([C@@H]2CCNC[C@H]2COc2ccc3c(c2)OCO3)cc1 [Paroxetine]	1.92	1.79	0.13	0.07	–
CC(C)NCC(O)COc1cccc2[nH]ccc12 (stereo not drawn) [Pindolol]	1.84	1.18	0.59	0.83	–
NC(=O)C1(N2CCCCC2)CCN(CCCC(=O)c2ccc(F)cc2)CC1 [Pipamperone]	1.35	1.32	0.42	0.23	–
CC(C)(C)NCC(O)c1ccc(O)c(CO)n1 (stereo not drawn) [Pirbuterol]	12.66	6.00	0.95	1.31	–
CCCOC(C(=O)OC1CCN(C)CC1)(c1ccccc1)c1ccccc1 [Propiverine]	1.20	1.07	0.33	0.44	MATE1 (MATE1; [4]): 1.2; MATE2 (MATE2K; [5]): 1.07
NC(=O)c1cnccn1 [Pyrazinamide]	0.97	1.05	0.95	1.08	MATE1 (MATE1; [4]): 0.97; MATE2 (MATE2K; [5]): 1.05
OCCOCCN1CCN(C2=Nc3ccccc3Sc3ccccc32)CC1 [Quetiapine]	1.10	1.28	0.49	0.45	MATE1 (MATE1; [4]): 1.1; MATE2 (MATE2K; [5]): 1.28
Cc1nc2n(c(=O)c1CCN1CCC(c3noc4cc(F)ccc34)CC1)CCCC2 [Risperidone]	–	–	–	–	MATE1 (MATE1): 1.07; MATE1 ratio (MATE1): 1.07; MATE2 (MATE2K): 1.37; MATE2K ratio (MATE2K): 1.37; TS DPH hCMEC (hCMEC [1]): 0.53; TS MDAI hCMEC (hCMEC [2]): 0.46
CCCN1CCCC[C@H]1C(=O)Nc1c(C)cccc1C [Ropivacaine]	1.22	1.49	0.15	0.37	MATE1 (MATE1; [4]): 1.22; MATE2 (MATE2K; [5]): 1.49
